Our source for the IC50 values is patent US20220163539A1, “NLRP3 INFLAMMASOME INHIBITION” (Inflazome Limited, priority 2019, published 2022).

The target of assay [1] is T1, NLRP3 in NLRP3 over-expressing HEK293 cell lysate supernatants (Homo sapiens, UniProt Q96P20).
T1 construct: expressed in transfected cells; host or cells: HEK293
In words: Radioligand binding assay with [3H]-MCC7840, gel filtration. The following applies: 200 nM [3H]-MCC7840, 700 μg protein, 4 hrs at RT; minimum of curve fit constrained; read-out: estimated IC50, competition with [3H]-MCC7840.
Description: As NLRP3 is a cytoplasmic protein a conventional filtration binding assay method could not be used to separate free vs bound radiolabel from cell lysates.
Cell pellets were defrosted over ice and diluted one in two with binding buffer. […] Supernatant was removed and stored at −20° C. Protein determination was performed on these samples using the Pierce BCA kit following the manufacturer's instructions.
Binding buffer volume was dependent on the volume of supernatant used in the assay. Samples were combined together and incubated, with shaking, for 4 hrs @ room temperature.
Briefly, the PD MultiTrap plates were spun down at room temperature (RT), 800 g, for 1 minute to remove the storage buffer. They were washed five times with 300 μl/well binding buffer, 800 g, RT for 1 minute.
80 μl of sample was added per well, spun down at 400 g for 1 minute. 50 μl of the flow through was added to 145 μl Microscint-20 in Optiplates. The plate was shaken for approximately 30 minutes at RT prior to reading in a Perkin Elmer TopCount. Data was analysed using GraphPad Prism.
The specific binding was determined by subtracting the non-specific binding from the total binding.

The test system of assay [2] is IL-1β release from THP-1 cells. The assay can be described thus: IL-1β release assay in THP-1 cells (LPS and nigericin stimulation). The following applies: Homo sapiens, THP-1, read-out: IC50 for inhibition of release of IL-1β from THP-1 cells.
Excerpt: An IL-1β release assay in THP-1 cells was used to assess the ability of the different molecules to inhibit inflammasome-mediated cytokine secretion.

T1 sequence (Q96P20 whole entry): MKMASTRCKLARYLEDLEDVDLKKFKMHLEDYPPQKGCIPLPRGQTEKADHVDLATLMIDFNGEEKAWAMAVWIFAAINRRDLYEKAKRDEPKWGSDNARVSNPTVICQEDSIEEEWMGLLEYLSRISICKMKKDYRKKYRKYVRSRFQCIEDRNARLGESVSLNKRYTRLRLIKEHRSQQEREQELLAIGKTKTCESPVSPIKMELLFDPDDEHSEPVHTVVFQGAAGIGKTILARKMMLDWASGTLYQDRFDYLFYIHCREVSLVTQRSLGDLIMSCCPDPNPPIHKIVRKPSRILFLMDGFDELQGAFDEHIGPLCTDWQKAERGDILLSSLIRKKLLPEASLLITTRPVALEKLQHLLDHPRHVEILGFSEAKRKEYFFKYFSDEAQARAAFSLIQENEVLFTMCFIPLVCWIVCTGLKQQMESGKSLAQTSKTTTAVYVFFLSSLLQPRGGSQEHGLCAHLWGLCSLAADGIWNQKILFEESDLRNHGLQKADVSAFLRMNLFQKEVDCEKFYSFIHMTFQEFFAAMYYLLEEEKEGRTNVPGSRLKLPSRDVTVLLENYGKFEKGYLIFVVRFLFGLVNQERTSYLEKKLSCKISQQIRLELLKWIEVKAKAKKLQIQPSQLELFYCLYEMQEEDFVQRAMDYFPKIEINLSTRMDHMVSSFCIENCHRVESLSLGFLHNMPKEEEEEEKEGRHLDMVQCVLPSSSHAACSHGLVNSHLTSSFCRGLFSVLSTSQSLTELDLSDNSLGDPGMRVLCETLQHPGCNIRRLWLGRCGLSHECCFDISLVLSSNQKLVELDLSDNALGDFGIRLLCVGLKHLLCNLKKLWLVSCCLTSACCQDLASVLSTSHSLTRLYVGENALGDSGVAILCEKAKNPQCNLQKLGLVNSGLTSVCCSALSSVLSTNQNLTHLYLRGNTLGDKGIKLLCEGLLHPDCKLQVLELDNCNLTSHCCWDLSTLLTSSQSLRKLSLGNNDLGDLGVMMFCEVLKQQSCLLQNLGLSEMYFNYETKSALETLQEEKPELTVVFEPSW

As to `Nc1ncnc2c1ncn2[C@@H]1O[C@H](COP(=O)(O)OP(=O)(O)OP(=O)(O)O)[C@@H](O)[C@H]1O` [ATP], in assay [1], the half-maximal inhibitory concentration (IC50) (in general, the concentration that inhibits the measured activity by half) is 75 mM.

Turning to `CC(C)(O)c1coc(S(=O)(=O)NC(=O)Nc2c3c(cc4c2CCC4)CCC3)c1` [MCC950], in assay [2], the half-maximal inhibitory concentration (IC50) is 27 nM.

As to `CC(C)n1ccc(S(=O)(=O)NC(=O)Nc2c3c(cc4c2CCC4)CCC3)n1` [MCC7840], in assay [2], the IC50 was 110 nM.
